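These data come from cells grown in 96-well plates and exposed to compound for 48 hours at five concentrations. Abbreviation: GI50, concentration required for 50% inhibition of growth.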 Active and inactive are the calls of the source. No stated cut-off is given here; in the data, active = GI50 up to about 1.1 µM and inactive = higher.
Experiments:
Experiment in all cases: NCI-60 cell line screen, 48 h
CCRF-CEM = tested on: CCRF-CEM
OVCAR-5 = tested on: OVCAR-5
MDA-N = tested on: MDA-N
TK-10 = tested on: TK-10
LOX IMVI = tested on: LOX IMVI
SR = tested on: SR
MCF7 = tested on: MCF7
HOP-92 = tested on: HOP-92
SK-MEL-28 = tested on: SK-MEL-28
A498 = tested on: A498
BT-549 = tested on: BT-549
ACHN = tested on: ACHN
HCT-116 = tested on: HCT-116
NCI-H460 = tested on: NCI-H460
MDA-MB-435 = tested on: MDA-MB-435
T47D = tested on: T47D
SK-MEL-2 = tested on: SK-MEL-2
OVCAR-8 = tested on: OVCAR-8
SK-MEL-5 = tested on: SK-MEL-5
SK-OV-3 = tested on: SK-OV-3

SMILES	GI50 (CCRF-CEM)	GI50 (OVCAR-5)	GI50 (MDA-N)	GI50 (TK-10)	GI50 (LOX IMVI)	GI50 (SR)	GI50 (MCF7)	GI50 (HOP-92)	GI50 (SK-MEL-28)	GI50 (A498)	GI50 (BT-549)	GI50 (ACHN)	GI50 (HCT-116)	GI50 (NCI-H460)	GI50 (MDA-MB-435)	GI50 (T47D)	GI50 (SK-MEL-2)	GI50 (OVCAR-8)	GI50 (SK-MEL-5)	GI50 (SK-OV-3)
CCOC(=O)c1cc2cc3c4c(c2oc1=O)CCCN4CCC3	29.4 µM (inactive)	> 100 µM (inactive)	37.2 µM (inactive)	21.6 µM (inactive)	26.1 µM (inactive)	22.8 µM (inactive)	23.2 µM (inactive)	17.1 µM (inactive)	43.4 µM (inactive)	17.6 µM (inactive)	31.4 µM (inactive)	34 µM (inactive)	27 µM (inactive)	48.3 µM (inactive)	28.3 µM (inactive)	15.2 µM (inactive)	24.7 µM (inactive)	22.1 µM (inactive)	13.4 µM (inactive)	–
Nc1nc(NCC2(CO)CCC2)cc(=O)[nH]1	> 100 µM (inactive)	> 100 µM (inactive)	> 100 µM (inactive)	–	> 100 µM (inactive)	> 100 µM (inactive)	> 100 µM (inactive)	> 100 µM (inactive)	> 100 µM (inactive)	> 100 µM (inactive)	> 100 µM (inactive)	–	> 100 µM (inactive)	> 100 µM (inactive)	> 100 µM (inactive)	> 100 µM (inactive)	> 100 µM (inactive)	> 100 µM (inactive)	> 100 µM (inactive)	> 100 µM (inactive)
CN1CCN(Cc2ccc(C(=S)Nc3ccccc3)s2)CC1	24 µM (inactive)	45.8 µM (inactive)	35.6 µM (inactive)	–	15.7 µM (inactive)	21.2 µM (inactive)	41.9 µM (inactive)	–	15.5 µM (inactive)	33.7 µM (inactive)	15.9 µM (inactive)	92 µM (inactive)	42.5 µM (inactive)	36.4 µM (inactive)	31.9 µM (inactive)	59.2 µM (inactive)	41.8 µM (inactive)	14.5 µM (inactive)	17.6 µM (inactive)	86.1 µM (inactive)
O=C(N/N=C/c1ccc([N+](=O)[O-])o1)c1ccc(C(=O)N/N=C/c2ccc([N+](=O)[O-])o2)cc1	14.8 µM (inactive)	> 100 µM (inactive)	20.7 µM (inactive)	–	34.2 µM (inactive)	29.8 µM (inactive)	15.7 µM (inactive)	53.8 µM (inactive)	13.2 µM (inactive)	8.87 µM (inactive)	> 100 µM (inactive)	10.2 µM (inactive)	30.1 µM (inactive)	–	16.2 µM (inactive)	41.3 µM (inactive)	74.5 µM (inactive)	28.4 µM (inactive)	22.6 µM (inactive)	> 100 µM (inactive)
Cc1c(-c2ccccc2)c(C#N)c2nnc(C(N)=O)c(N)n12	> 100 µM (inactive)	> 100 µM (inactive)	> 100 µM (inactive)	> 100 µM (inactive)	> 100 µM (inactive)	> 100 µM (inactive)	> 100 µM (inactive)	–	> 100 µM (inactive)	> 100 µM (inactive)	> 100 µM (inactive)	> 100 µM (inactive)	> 100 µM (inactive)	> 100 µM (inactive)	> 100 µM (inactive)	> 100 µM (inactive)	> 100 µM (inactive)	> 100 µM (inactive)	> 100 µM (inactive)	70.5 µM (inactive)
N=C(/C=C/c1ccc(-c2cn3cc(/C=C/C(=N)N4CCCC4)ccc3n2)cc1)N1CCCC1	–	> 100 µM (inactive)	> 100 µM (inactive)	> 100 µM (inactive)	–	> 100 µM (inactive)	> 100 µM (inactive)	> 100 µM (inactive)	> 100 µM (inactive)	> 100 µM (inactive)	> 100 µM (inactive)	68.9 µM (inactive)	90.8 µM (inactive)	81.3 µM (inactive)	> 100 µM (inactive)	> 100 µM (inactive)	> 100 µM (inactive)	79.1 µM (inactive)	> 100 µM (inactive)	> 100 µM (inactive)
O=C(/C=C1\Nc2ccccc2N\C1=C/C(=O)c1ccc(F)cc1)c1ccc(F)cc1	25.5 µM (inactive)	> 100 µM (inactive)	> 100 µM (inactive)	> 100 µM (inactive)	> 100 µM (inactive)	54.3 µM (inactive)	15.1 µM (inactive)	> 100 µM (inactive)	> 100 µM (inactive)	> 100 µM (inactive)	> 100 µM (inactive)	> 100 µM (inactive)	> 100 µM (inactive)	53.7 µM (inactive)	> 100 µM (inactive)	63 µM (inactive)	> 100 µM (inactive)	> 100 µM (inactive)	> 100 µM (inactive)	–
O=C1/C(=C/c2ccc(Br)s2)NC(=S)N1CN1CCCCC1	–	76.6 µM (inactive)	33.9 µM (inactive)	34.5 µM (inactive)	21.5 µM (inactive)	15.8 µM (inactive)	20.6 µM (inactive)	–	41.1 µM (inactive)	22.9 µM (inactive)	25.9 µM (inactive)	46 µM (inactive)	31 µM (inactive)	36.1 µM (inactive)	30 µM (inactive)	30.5 µM (inactive)	0.678 µM (active)	33.3 µM (inactive)	0.317 µM (active)	–
NC(=O)NCCCC(NC(=O)OCCCCCCn1ccc(=O)[nH]c1=O)C(=O)O (configuration not stated)	> 100 µM (inactive)	> 100 µM (inactive)	> 100 µM (inactive)	> 100 µM (inactive)	> 100 µM (inactive)	9.42 µM (inactive)	> 100 µM (inactive)	> 100 µM (inactive)	> 100 µM (inactive)	–	> 100 µM (inactive)	> 100 µM (inactive)	> 100 µM (inactive)	> 100 µM (inactive)	> 100 µM (inactive)	> 100 µM (inactive)	> 100 µM (inactive)	> 100 µM (inactive)	–	> 100 µM (inactive)
CSC1=C(SC)SC(=C2SC3=C(SC(=C4SCCS4)S3)S2)S1	> 100 µM (inactive)	> 100 µM (inactive)	> 100 µM (inactive)	> 100 µM (inactive)	> 100 µM (inactive)	> 100 µM (inactive)	> 100 µM (inactive)	> 100 µM (inactive)	> 100 µM (inactive)	–	> 100 µM (inactive)	> 100 µM (inactive)	> 100 µM (inactive)	> 100 µM (inactive)	> 100 µM (inactive)	> 100 µM (inactive)	> 100 µM (inactive)	> 100 µM (inactive)	> 100 µM (inactive)	> 100 µM (inactive)
CCC1=NC(C(F)(F)F)(C(F)(F)F)N=C(/N=C(/N)N(C)C(C(C)C)P(=O)(OC(C)C)OC(C)C)O1 (configuration not stated)	> 100 µM (inactive)	> 100 µM (inactive)	> 100 µM (inactive)	> 100 µM (inactive)	> 100 µM (inactive)	> 100 µM (inactive)	> 100 µM (inactive)	–	> 100 µM (inactive)	> 100 µM (inactive)	> 100 µM (inactive)	> 100 µM (inactive)	> 100 µM (inactive)	> 100 µM (inactive)	> 100 µM (inactive)	> 100 µM (inactive)	> 100 µM (inactive)	> 100 µM (inactive)	> 100 µM (inactive)	> 100 µM (inactive)
